The results in this text go back to US9056108B2, “Method of treating atrial fibrillation” (Gilead Sciences, Inc., priority 2009, dated 2015).

The subject of assay [1] is isolated canine coronary-perfused right atria. Description: Electrophysiology in isolated coronary-perfused canine right atrial preparations. As to conditions: for Shortest S1-S1 (shortest CL permitting 1:1 activation) / APD90 / ERP: ranolazine 5 μM, dronedarone 10 μM; for APD90 / ERP: pectinate muscle, CL of 500 ms. Here is the method: Experiments were performed using isolated coronary-perfused canine right atrial (RA) and left ventricular (LV) preparations (≈3×1.5×1 cm). Isolation and perfusion of the preparations were as previously described.^9, 15, 16 Briefly, preparations were dissected from hearts removed from anesthetized (sodium pentobarbital) adult mongrel dogs (20-30 kg). Unfolded RA with attached rim of the right ventricle was cannulated and perfused with cold cardioplegic solution (4-8° C.) through the ostium of the right coronary artery; the LV wedge was perfused through a diagonal branch of the left anterior descending coronary artery. Unperfused tissue was removed with a razor blade. Cut ventricular and atrial branches were ligated using silk thread. The preparations were then transferred to a temperature-controlled bath and arterially-perfused with Tyrode's solution by use of a roller pump. The composition of the Tyrode's solution was (in mM): NaCl 129, KCl 4, NaH2PO4 0.9, NaHCO3 20, CaCl2 1.8, MgSO4 0.5, and D-glucose 5.5, buffered with 95% O2 and 5% CO2 (37±0.5° C., pH=7.35)
Transmembrane action potential (AP) recordings were obtained using floating glass microelectrodes at a sampling rate of 40 kHz. A pseudo-electrocardiogram (ECG) was recorded using two electrodes consisting of Ag/AgCl half cells placed in the Tyrode's solution bathing the preparation, 1.0 to 1.5 cm from the two opposite sides of the atrial or ventricular coronary-perfused preparations. Conduction time was approximated by the duration of “P wave” in atria and “QRS complex” in ventricles, at a level representing 10% of “P wave” and “QRS” amplitude. Diastolic threshold of excitation (DTE) was determined by increasing stimulus intensity in 0.01 mA steps. Effective refractory period (ERP) was measured by delivering premature stimuli at progressively shorter S1-S2 intervals after every 10 basic beats at a pacing cycle length (CL) of 500 ms (5 ms steps; 2 times DTE). Post-repolarization refractoriness (PRR) was recognized when ERP exceeded action potential duration measured at 90% repolarization (APD90) in the ventricle and APD measured at 70% repolarization (APD70) in atria. Ventricular ERP was coincident with APD90, whereas atrial ERP was generally coincident with APD70-75.^9 The shortest S1-S1 permitting 1:1 activation was measured by progressively shortening pacing CL starting from a CL of 500 ms.
Stable AP recordings could not be readily obtained in the vigorously contracting perfused preparations. The largest recorded maximum rate of rise of the AP upstroke (Vmax) values per experimental condition were taken for statistical comparison. Only APs having amplitudes of at least 100 mV were considered in the analysis. The largest Vmax criterion was used because this was associated with the largest amplitude and the most negative resting membrane potential, depicting full or near full impalement. In determining use-dependent depression of Vmax, values were normalized to the Vmax value at a CL of 500 ms for each experiment and then averaged.
Because of their dependence on peak INa, Vmax, DTE, PRR, and conduction time as well the shortest S1-S1 interval permitting 1:1 activation are referred to as INa-dependent parameters.
The equilibration period for the coronary-perfused preparations was 30-120 min. The preparations were exposed to 5 μM ranolazine, 10 μM dronedarone (after 30 min washout of ranolazine), and the combination of these agents for at a period of at least 20 min. In time-control experiments, 20 minutes was sufficient to achieve steady-state in the effects of each of the drugs to alter electrophysiologic parameters. Recordings were obtained at a cycle length (CL) of 500 and 300 ms, unless otherwise indicated. […] When determining the shortest S1-S1 pacing rate permitting 1:1 activation, the stimulation intensity was DTE x 2, determined at a CL of 500 ms.

In assay [2] the test system is ACh-mediated persistent AF in isolated canine coronary-perfused right atria. Description: Acetylcholine (ACh)-mediated persistent AF model in coronary-perfused right atria. The conditions noted are these: for Termination Persistent AF: ACh 1 μM-mediated persistent AF; for Prevention of AF re-induction: after termination of ACh-mediated AF; for Reduction/suppression of persistent AF: canine perfused right atrial preparations; for Induction of Persistent AF: in presence of ACh 1 μM. Here is the method:
To assess the anti-AF potential of ranolazine, dronedarone, and their combination, we used an acetylcholine (ACh, 1.0 μM)-mediated AF model. In the presence of ACh, premature electrical stimulation (PES) or rapid pacing (CL=50-80 ms) induces persistent AF in 100% of canine coronary-perfused right atrial preparations.^9 The effect of the drugs was assessed to prevent (series 1) the induction of AF. In a separate set of preparations, the ability of these agents was evaluated to terminate (series 2) persistent AF. In the first series, ACh was added to the perfusate 20-30 min after the start of perfusion with 5 μM ranolazine, 10 μM dronedarone, or the combination of these agents. This was followed by attempts to induce the arrhythmia electrically. In the second series, the agents were added to the perfusate during ACh-mediated persistent AF (on the 5-6th minutes after the start of the arrhythmia). In cases in which the drug terminated AF, we attempted to re-induce the arrhythmia with rapid pacing.

The subject of assay [3] is canine pulmonary vein (PV) sleeve preparations. In words: Superfused pulmonary vein (PV) sleeve preparations. The conditions noted are these: ranolazine 5 μM; for Reduction in Vmax following change of rate: CL 5000 to 300 ms, dronedarone 10 μM (control 13%); for Diastolic threshold of excitation (DTE): CL of 300 ms, from 0.21±0.07; for Diastolic threshold of excitation (DTE) / Shortest pacing CL permitting a 1:1 response: dronedarone 10 μM; for Shortest pacing CL permitting a 1:1 response: untreated controls 116±8. Here is the method:
Pulmonary vein (PV) sleeve preparations (approximately 2.0×1.5 cm) were isolated from left canine atria. The thickness of the preparation was approximately 2 mm. […] The preparations were placed in a small tissue bath and superfused with Tyrode's solution of the following composition (mM): 129 NaCl, 4 KCl, 0.9 NaH2PO4, 20 NaHCO3, 1.8 CaCl2, 0.5 MgSO4, 5.5 glucose, buffered with 95% O2/5% CO2 (35±0.5° C.). The PV preparations were stimulated at a basic cycle length (BCL) of 1000 ms during the equilibration period (1 h) using electrical pulses (1-3 ms duration, 2.5 times diastolic threshold intensity) delivered through silver bipolar electrodes insulated except at the tips. Transmembrane potentials were recorded (at a sampling rate of 40 kHz) using glass microelectrodes filled with 3 M KCl (10-20 MΩ DC resistance) connected to a high input-impedance amplification system (World Precision Instruments, model KS-700, New Haven, Conn.). The following parameters were measured: DTE, Vmax, and shortest S1-S1 permitting 1:1 activation. Acetylcholine (ACh, 1 μM), isoproterenol (1 μM), high calcium or their combination were used to induce late phase 3 EADs, DADs and triggered activity.

The test system of assay [4] is ACh-mediated persistent AF in isolated canine coronary-perfused right atria. Description: Acetylcholine (ACh)-mediated persistent AF model in coronary-perfused right atria. The conditions noted are these: ranolazine 5 μM, dronedarone 10 μM; without ACh.
In assay [5] the test system is coronary-perfused canine left ventricular (LV) preparations. Description: Electrophysiology in isolated coronary-perfused canine left ventricular preparations. The conditions noted are these: current in vitro investigation. Here is the method: Experiments were performed using isolated coronary-perfused canine right atrial (RA) and left ventricular (LV) preparations (≈3×1.5×1 cm). Isolation and perfusion of the preparations were as previously described.^9, 15, 16 Briefly, preparations were dissected from hearts removed from anesthetized (sodium pentobarbital) adult mongrel dogs (20-30 kg). Unfolded RA with attached rim of the right ventricle was cannulated and perfused with cold cardioplegic solution (4-8° C.) through the ostium of the right coronary artery; the LV wedge was perfused through a diagonal branch of the left anterior descending coronary artery. Unperfused tissue was removed with a razor blade. […]
Transmembrane action potential (AP) recordings were obtained using floating glass microelectrodes at a sampling rate of 40 kHz. A pseudo-electrocardiogram (ECG) was recorded using two electrodes consisting of Ag/AgCl half cells placed in the Tyrode's solution bathing the preparation, 1.0 to 1.5 cm from the two opposite sides of the atrial or ventricular coronary-perfused preparations. […] Diastolic threshold of excitation (DTE) was determined by increasing stimulus intensity in 0.01 mA steps. Effective refractory period (ERP) was measured by delivering premature stimuli at progressively shorter S1-S2 intervals after every 10 basic beats at a pacing cycle length (CL) of 500 ms (5 ms steps; 2 times DTE). […]

Setting [6] is: 2x threshold stimulus intensity, without ACh, in ms (unit assumed).
The mark [7] stands for this setting: ranolazine 5 μM, dronedarone 10 μM.

`COc1ccccc1OCC(O)CN1CCN(CC(=O)Nc2c(C)cccc2C)CC1` (racemic) [Ranolazine, (±)-N-(2,6-dimethylphenyl)-4-[2-hydroxy-3-(2-methoxyphenoxy)-propyl]-1-piperazineacetamide]: in assay [1] (setting [6]), the “Shortest S1-S1 (shortest CL permitting 1:1 activation)” value (“Shortest S1-S1” for short) is on record as 201 ± 22. Also, in assay [1] (in presence of ACh 1 μM), the “Shortest S1-S1” value worked out at 94 ± 11, the APD90 turned out to be 52 ± 6 ms and the ERP was found to be 72 ± 13 ms. In addition, in assay [1] (without ACh), the APD90 was found to be 210 ± 10 ms and the ERP is 181 ± 11 ms. In assay [2] (setting [7]), the “Termination Persistent AF” value is recorded as 20%, the “Prevention of AF re-induction” value is 100% and the “Induction of Persistent AF” value is given as 71%. Moreover, the “Reduction/suppression of persistent AF” value in assay [2] is reported as 29%. Besides, the “Prevention of induction of sustained/persistent AF (atria)” value in assay [2] (pretreatment, then ACh 1 μM, ranolazine 5 μM, dronedarone 10 μM) was 2/7. Also, in assay [3], the “Reduction in Vmax following change of rate” value worked out at 19%, the “Diastolic threshold of excitation (DTE)” value was determined as 0.24±0.09 mA and the “Shortest pacing CL permitting a 1:1 response” value was 121 ± 13 ms. The “Induction of Persistent AF” value in assay [4] is on record as 0%.
`CCCCc1oc2ccc(NS(C)(=O)=O)cc2c1C(=O)c1ccc(OCCCN(CCCC)CCCC)cc1` [Dronedarone, N-(2-Butyl-3-(p-(3-(dibutylamino)propoxy)benzoyl)-5-benzofuranyl)methanesulfonamide]: the “Shortest S1-S1” value in assay [1] (setting [6]) amounted to 147 ± 11. The “Prolongation of atrial ERP” value in assay [1] (current in vitro investigation) was found to be 9%. Besides, in assay [1] (in presence of ACh 1 μM), the “Shortest S1-S1” value amounted to 88 ± 13, the APD90 stood at 45 ± 5 ms and the ERP was 59 ± 7 ms. Besides, in assay [1] (without ACh), the APD90 was 202 ± 9 ms and the ERP amounted to 171 ± 11 ms. Further, the “Prolongation of ventricular ERP” value in assay [5] was 4%. Moreover, in assay [2] (setting [7]), the “Termination Persistent AF” value is 17%, the “Prevention of AF re-induction” value came out at 0% and the “Induction of Persistent AF” value was 83%. In assay [2], the “Reduction/suppression of persistent AF” value is listed as 17%. Further, in assay [3], the “Reduction in Vmax following change of rate” value is listed as 20%, the “Diastolic threshold of excitation (DTE)” value is on record as 0.26±0.09 mA and the “Shortest pacing CL permitting a 1:1 response” value was 120 ± 12 ms. Moreover, in assay [4], the “Induction of Persistent AF” value came out at 0%.
